# Results: patent US9732105B2, “Targeted nitroxide agents” (University of Pittsburgh—of the Commonwealth System of …, priority 2011, dated 2017)
# Where two headings read alike, the source gives them in different places.
# Columns and labels:
# [1] = DPPH radical scavenging assay; type: biochemical; conditions: for EC50: EtOH, 100 μM DPPH, 30 min at 37° C.
# Source text: The free radical reduction abilities of the nitroxides and nitroxide-conjugates were benchmarked by the DPPH (2,2-diphenyl-1-picrylhydrazyl) assay.
# [2] = Ascorbic acid electron scavenging assay (disappearance of nitroxide ESR signal); type: biochemical; conditions: 0.5 μM nitroxide, nitroxide ESR signal after 8.5 min; for Signal Decrease (%) (a): 35 μM ascorbate; for Signal Decrease (%) (b): 280 μM ascorbate; for Signal Decrease (%) (c): 1.12 mM ascorbate
# Source text: In contrast to the DPPH assay, which mainly addresses the radical scavenging/reducing properties of nitroxides and hydroxylamines, the reaction of nitroxides with ascorbic acid benchmarks their ability to act as oxidizing agents in their conversion to hydroxylamines, which is important to their protective function as electron scavengers in the mitochondrial electron transport chain. The electron acceptor potentials of various nitroxides were thus benchmarked in the presence of low, medium, and high concentrations of the electron donor ascorbate (Table 3). ESR was used to detect the characteristic triplet of the nitroxide vs the doublet of ascorbate radicals (see supplementary information), and the disappearance of the former and appearance of the latter was measured over 8.5 min.
# [3] = system: 32Dcl3 murine hematopoietic cells; assay: Irradiation survival assay (colony formation) in 32Dcl3 cells; type: cell-based; conditions: for Do, before irradiation / ñ, before irradiation: 10 μM nitroxide for 1 h before irradiation, 0 to 8 Gy; for Do, before irradiation / ñ, before irradiation / Do, after irradiation / ñ, after irradiation: colonies after 7 d; for Do, after irradiation / ñ, after irradiation: cells irradiated, then placed in media containing 10 μM nitroxide; for protection of cells from irradiation (in words): given 1 h before irradiation, shown by increased D0
# Source text: Irradiation survival assays were used to test the ability of selected nitroxide-conjugates to protect against, or mitigate, irradiation-induced damage of 32Dcl3 murine hematopoietic cells.
# Ercc1^−/− MEFs = assay: Cell proliferation / rescue of oxidative-stress-induced senescence in Ercc1−/− MEFs; type: cell-based; conditions: for EC50: read-out: Cell proliferation EC50
# Source text: Cell survival in irradiation studies depends on complex biochemical pathways, possibly accounting for the complex correlation of nitroxide structure and radiation mitigation properties. Irradiation-induced cell death results from an accumulation of events that individually are not able to kill the cell, but which become lethal when added together. To develop a firmer basis for studying structural modifications, we assayed the ability to rescue cellular senescence induced by oxidative stress in Ercc1^−/− MEFs as a function of test agents (Table 5).
# Ercc1^−/− MEFs completely lack a critical DNA repair factor, making these cells highly sensitive to genotoxic and oxidative stress. Growth of the Ercc1^−/− MEFs in 20% 02 results in cellular senescence as measured by senescence associated β-gal, γ-H2AX staining and p16 protein levels. The ability to rescue senescence, as measured by an increase in cell number, correlates with the inhibition of oxidative stress.
# [4] = Stability of the free nitroxide on storage; type: physicochemical; conditions: after removal of the Boc group; storage at rt
# Source text: Preparation of 3-amino-ABNO (12) was envisioned from the known ketone 21, which was easily accessible in one step from acetonedicarboxylic acid and glutaraldehyde (Scheme 1). Conversion of 21 to oxime 22, followed by reduction to the amine with nickel boride and N-Boc protection provided carbamate 23 in high yield. Removal of the benzyl group by catalytic hydrogenolysis and oxidation of the free secondary amine in the presence of urea-hydrogen peroxide complex (UHP) furnished the Boc-protected nitroxide 24.
# A mixture of Boc-protected amine 3-Boc-amino-ABNO (24, 200 mg, 0.783 mmol) in a 4.0 N solution of HCl in 1,4-dioxane (3.3 mL, 13.2 mmol) was stirred at 0° C. for 1 h and at rt for an additional 2 h. The suspension was then filtered and the solid rinsed with cold dry Et2O, to give 167 mg of an off-white powder. It was dissolved in a minimum of 2.5 N aq. NaOH, and extracted with warm CHCl3 (7×). The combined organic layers were dried (K2CO3), filtered and concentrated in vacuo to afford 110 mg (90%) of a red oil. Upon high vacuum and/or storage at rt for not more than 1 h, the product started to loose the red color characteristic for a nitroxide and became pale yellow. Thus, the title compound is unstable.
compound,measurement,setting,value
"CC(C)C[C@@H](/C=C/CC(=O)N[C@@H]1CC2CCC[C@@H](C1)N2[O])NC(=O)OC(C)(C)C [Compound 26, (S,E)-N-(9-Azabicyclo[3.3.1]nonan-9-oxo-3-yl)-5-(tert-butoxycarbonylamino)-7-methyloct-3-enamide]",DPPH radical scavenging activity (in words),[1],slightly higher EC50 values than their corresponding nitroxide substructures
same,Signal Decrease (%) (a),[2],100%
same,Signal Decrease (%) (b),[2],100%
same,"Do, before irradiation",[3],3.1 ± 0.6 Gy
same,"ñ, before irradiation",[3],1.0 ± 0.1
same,"Do, after irradiation",[3],1.3 ± 0.1 Gy
same,"ñ, after irradiation",[3],2.7 ± 0.7
same,protection of cells from irradiation (in words),[3],able to protect cells from multiple killing events
same,EC50,"Ercc1^−/− MEFs; Ercc1−/− MEFs, 20% O2",11.8 ± 2.7 nM
"CC1(C)CC(O)CC(C)(C)N1[O] [Compound 9, 4-hydroxy-2,2,6,6-tetramethylpiperidine-N-oxyl, reference compound]",Signal Decrease (%) (a),[2],35.7%
same,Signal Decrease (%) (b),[2],81%
same,Signal Decrease (%) (c),[2],100%
same,EC50,Ercc1^−/− MEFs,229 ± 23.9 nM
"COc1cc(/C=C/C(=O)CC(=O)/C=C/c2ccc(O)c(OC)c2)ccc1O [Curcumin, reference compound]",EC50,"Ercc1^−/− MEFs; Ercc1−/− MEFs, 20% O2",1000 nM
same,rescue of senescence (in words),Ercc1^−/− MEFs; used as negative control,only very weak effects
CC1(C)c2ccc(N)cc2C(C)(C)N1O [Compound 8-H],EC50,[1],169000 ± 7000 nM
"N[C@@H]1CC2CCC[C@@H](C1)N2[O] [Compound 12, 3-Amino-9-azabicyclo[3.3.1]nonane N-oxyl]",stability (in words),[4],unstable
CC(C)C[C@@H](/C=C/CC(=O)Nc1ccc2c(c1)C(C)(C)N([O])C2(C)C)NC(=O)OC(C)(C)C [Compound 20],DPPH radical scavenging activity (in words),[1],slightly higher EC50 values than their corresponding nitroxide substructures
same,Signal Decrease (%) (b),[2],15.5%
same,Signal Decrease (%) (c),[2],77.4%
same,"Do, before irradiation",[3],1.8 ± 0.1 Gy
same,"ñ, before irradiation",[3],1.0 ± 0.1
same,"Do, after irradiation",[3],1.4 ± 0.1 Gy
same,"ñ, after irradiation",[3],2.4 ± 0.2
same,protection of cells from irradiation (in words),[3],able to protect cells from multiple killing events
same,EC50,"Ercc1^−/− MEFs; Ercc1−/− MEFs, 20% O2",17.6 ± 1.4 nM
6-Boc-amino-1-Me-AZADO [Compound 32],DPPH radical scavenging activity (in words),[1],slightly higher EC50 values than their corresponding nitroxide substructures
same,Signal Decrease (%) (a),[2],100%
same,Signal Decrease (%) (b),[2],100%
same,EC50,"Ercc1^−/− MEFs; Ercc1−/− MEFs, 20% O2",62.2 nM
CC(C)C[C@H](NC(=O)OCc1ccccc1)[C@@H]1C[C@H]1CC(=O)NC1CC(C)(C)N([O])C(C)(C)C1 [Compound 4],EC50,"Ercc1^−/− MEFs; Ercc1−/− MEFs, 20% O2",231 nM
CC(C)C[C@@H](/C=C/CC(=O)NC1CC(C)(C)N([O])C(C)(C)C1)NC(=O)OCc1ccccc1 [Compound 1],EC50,"Ercc1^−/− MEFs; Ercc1−/− MEFs, 20% O2",589 nM
CC(C)C[C@@H](/C=C/C(F)(F)C(=O)NC1CC(C)(C)N([O])C(C)(C)C1)NC(=O)OC(C)(C)C [Compound 6],Signal Decrease (%) (a),[2],58.4%
same,Signal Decrease (%) (b),[2],94.1%
same,EC50,Ercc1^−/− MEFs,7.6 ± 1.4 nM
CC(C)C[C@H](/C=C/CC(=O)NC1CC(C)(C)N([O])C(C)(C)C1)NC(=O)OC(C)(C)C [Compound 5],EC50,Ercc1^−/− MEFs,200 nM
CC(C)C[C@@H](/C=C/[C@H](Cc1ccccc1)C(=O)N1CCC[C@H]1C(=O)N[C@H](C(=O)N[C@@H](CCCNC(=O)OCc1ccccc1)C(=O)NC1CC(C)(C)N([O])C(C)(C)C1)C(C)C)NC(=O)OC(C)(C)C [XJB-5-131],DPPH radical scavenging activity (in words),[1],did not exhibit any significant activity
same,Signal Decrease (%) (a),[2],76.7%
same,Signal Decrease (%) (b),[2],92.4%
same,EC50,"Ercc1^−/− MEFs; Ercc1−/− MEFs, 20% O2",212 ± 5.1 nM
CC(C)C[C@@H](/C=C/CC(=O)NC1CC(C)(C)N([O])C(C)(C)C1)NP(=O)(c1ccccc1)c1ccccc1 [Compound 3],EC50,Ercc1^−/− MEFs,70.4 nM
"CC1(C)CCCC(C)(C)N1O [TEMPO-H, reference compound]",EC50,[1],79000 ± 2000 nM
"CC(C)(C)OC(=O)NC1CC2CCCC(C1)N2O (stereo not shown) [Compound 24, 3-(tert-Butoxycarbonylamino)-9-azabicyclo[3.3.1]nonane N-oxyl]",Signal Decrease (%) (a),[2],100%
same,Signal Decrease (%) (b),[2],100%
same,EC50,"Ercc1^−/− MEFs; Ercc1−/− MEFs, 20% O2",40 nM
"O=C1O[C@H]([C@@H](O)CO)C(O)=C1O [Ascorbic acid, reference compound]",EC50,[1],28000 ± 5000 nM
CC(C)C[C@@H](/C=C/CC(=O)NC1CC(C)(C)N([O])C(C)(C)C1)NC(=O)OC(C)(C)C [JP4-039],DPPH radical scavenging activity (in words),[1],did not exhibit any significant activity
same,Signal Decrease (%) (a),[2],29.7%
same,Signal Decrease (%) (b),[2],81.4%
same,"Do, before irradiation",[3],2.3 ± 0.3 Gy
same,"ñ, before irradiation",[3],1.0 ± 0.1
same,"Do, after irradiation",[3],1.2 ± 0.1 Gy
same,"ñ, after irradiation",[3],3.5 ± 0.2
same,protection of cells from irradiation (in words),[3],able to protect cells from multiple killing events
same,EC50,Ercc1^−/− MEFs,210 ± 15.2 nM
CC(C)C[C@H](NC(=O)OC(C)(C)C)[C@@H]1C[C@H]1CC(=O)NC1CC(C)(C)N([O])C(C)(C)C1 [Compound 2],EC50,"Ercc1^−/− MEFs; Ercc1−/− MEFs, 20% O2",332 nM
CC(C)C[C@@H](/C=C/CC(=O)NC1[C@@H]2CC3C[C@H]1C[C@](C)(C2)N3[O])NC(=O)OC(C)(C)C (stereo partly shown) [Compound 33],"Do, before irradiation",[3],2.6 ± 0.4 Gy
same,"ñ, before irradiation",[3],1.0 ± 0.1
same,"Do, after irradiation",[3],1.3 ± 0.1 Gy
same,"ñ, after irradiation",[3],2.5 ± 0.3
same,protection of cells from irradiation (in words),[3],able to protect cells from multiple killing events
same,EC50,"Ercc1^−/− MEFs; Ercc1−/− MEFs, 20% O2",5.3 ± 0.5 nM
5-amino-TMIO [Compound 8],Signal Decrease (%) (c),[2],40.3%
same,EC50,"Ercc1^−/− MEFs; Ercc1−/− MEFs, 20% O2",< 1 nM
